Assay results as given in ChEMBL document CHEMBL1127287, “Synthesis and FKBP binding of small molecule mimics of the tricarbonyl region of FK506” (Bioorg Med Chem Lett, 1994).

Experiments:
[1] = target: T1, Peptidyl-prolyl cis-trans isomerase FKBP1A (Homo sapiens, UniProt P62942); test: Percent inhibition towards recombinant FK506 binding protein 12 to determine the FKBP binding property at a concentration of 100 uM
[2] = target: T1, Peptidyl-prolyl cis-trans isomerase FKBP1A; test: Binding affinity towards recombinant FK506 binding protein 12 to determine the FKBP binding property of the compound

T1 sequence (P62942 whole entry): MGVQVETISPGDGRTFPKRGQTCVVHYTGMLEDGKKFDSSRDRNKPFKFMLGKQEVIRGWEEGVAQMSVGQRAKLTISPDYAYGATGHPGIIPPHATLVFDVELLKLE

Row | inhibition [1] [%] | IC50 [2] [µM] | Structure (SMILES)
1 | 90 | 16 | COc1ccc(CCCCOC(=O)[C@@H]2CCCCN2C(=O)C(=O)c2cc(OC)c(OC)c(OC)c2)cc1
2 | 39 | – | C=C(C(=O)N1CCCC[C@H]1C(=O)OCCCCc1ccc(OC)cc1)c1cc(OC)c(OC)c(OC)c1
3 | 52 | – | COc1ccc(CCCCOC(=O)[C@@H]2CCCCN2C(=O)Cc2cc(OC)c(OC)c(OC)c2)cc1
4 | 47 | – | COc1ccc(CCCCOC(=O)[C@@H]2CCCCN2C(=O)C(C)c2cc(OC)c(OC)c(OC)c2)cc1 (stereo not given in full)
